Read-outs that look alike come from different tables or passages of the source.
What was measured:
Ba/F3 (EML4-ALK/C1156Y) = biological target: T1, Ba/F3 (EML4-ALK/C1156Y) (Homo sapiens, UniProt Q9UM73, C1156Y, cells depend on it); experiment: Growth inhibition IC50 in Ba/F3 cells expressing EML4-ALK C1156Y; format: cell-based
T1 construct: Q9HC35 (Echinoderm microtubule-associated protein-like 4)

[1] = biological target: T2, ALK protein in H3122 (EML4-ALK) cells (Homo sapiens, UniProt Q9UM73); experiment: Western blot of ALK protein level (degradation, DC50), ALK phosphorylation and downstream signaling in H3122 cells; format: cell-based; conditions: ALK protein degradation in H3122 cells
T2 construct: EML4 (Echinoderm microtubule-associated protein-like 4, Q9HC35) fusion partner, variant 1; host or cells: NCI-H3122 lung adenocarcinoma cells; the other entry of the earlier key: EML4 (Q9HC35, Echinoderm microtubule-associated protein-like 4)

Ba/F3 (EML4-ALK/L1196M) = biological target: T3, Ba/F3 (EML4-ALK/L1196M) (Homo sapiens, UniProt Q9UM73, L1196M, cells depend on it); experiment: Growth inhibition IC50 in Ba/F3 cells expressing EML4-ALK L1196M; format: cell-based
T3 construct: Q9HC35 (Echinoderm microtubule-associated protein-like 4)

[2] = Pharmacokinetics (PK) study in SD rat (IV, IP, PO; LC-MS/MS); format: in vivo; conditions: Sprague-Dawley, serum; for clearance: read-out: clearance rate, mean value
Method: SD rat were used to study the PK of ALK PROTAD compounds. ALK PROTAD compounds SIAIS164008, SIAIS164018, SIAIS164023 and SIAIS151118 were administrated into SD rat via three different routes: IV (Intravenous Injection), IP (Intraperitoneal Injection) and PO ([…]). Blood samples at different sampling time points up to 24 hours post dosing were collected from each animal and analyzed with LC-MS/MS to calculate the PK for each chemical.

[3] = biological target: T4, ALK protein in SR (NPM-ALK) cells (Homo sapiens, UniProt Q9UM73); experiment: Western blot of ALK protein level (degradation, DC50), ALK phosphorylation and downstream signaling in SR cells; format: cell-based; conditions: for DC50: ALK protein degradation in SR cells
T4 construct: NPM (nucleophosmin, NPM1, P06748) fusion partner; host or cells: SR (ALCL) cells; the other entry of the earlier key: NPM1 (P06748, Nucleophosmin)

Ba/F3 (EML4-ALK/WT) = biological target: T5, Ba/F3 (EML4-ALK/WT) (Homo sapiens, UniProt Q9UM73); experiment: Growth inhibition IC50 in Ba/F3 cells expressing EML4-ALK wild type; format: cell-based
T5 construct: Q9HC35 (Echinoderm microtubule-associated protein-like 4)

[4] = system: PC9Brc1 (EGFR, exon 19 del+T790M) cells; experiment: Growth inhibition IC50 in EGFR mutant lung cancer PC9Brc1 cells; format: cell-based; conditions: CTB, n ≥ 3, read-out: Half Inhibitory Concentration (IC50) Mean
SR (NPM-ALK) cells = experiment: Growth inhibition IC50 in ALCL SR cells (CCK8/WST, 72 hours); format: cell-based; conditions: 72 h, SR cells, WST; Brigatinib-based PROTAD molecules (Table 3)
[5] = system: NCI-H2228 (EML4-ALK, V3) cells; experiment: Growth inhibition IC50 in lung adenocarcinoma H2228 cells (WST); format: cell-based; conditions: Homo sapiens, WST (Table 3)
Text: Experiments were repeated at least three times.
Besides above, we also tested the dosage-dependent effects on the growth inhibition in H2228 cells. […] (Table 3).

[6] = system: PC9 (EGFR, exon 19 del) cells; experiment: Growth inhibition IC50 in EGFR mutant lung adenocarcinoma PC9 cells; format: cell-based; conditions: Homo sapiens, PC-9; PC9 cells, CTB, n ≥ 3; read-out: Half Inhibitory Concentration (IC50) Mean
[7] = system: U118MG cells (FIG-ROS1 gene fusion); experiment: Growth inhibition IC50 in ROS1 mutant glioblastoma cell line U118MG (72 hours); format: cell-based; conditions: Homo sapiens, U-118-MG, read-out: Half Inhibitory Concentration (IC50) Mean
[8] = system: SW48 cell line (EGFR G719S); experiment: Growth inhibition IC50 in EGFR G719S colorectal cancer cell line SW48; format: cell-based; conditions: Homo sapiens, CTG, n = 2, read-out: Half Inhibitory Concentration (IC50) Mean
MOLM13 cells (FLT3-ITD) = experiment: Growth inhibition IC50 in FLT3-ITD AML cell line MOLM13; format: cell-based; conditions: Homo sapiens
ALK protein in SR cells = biological target: T6, ALK protein in SR cells (Homo sapiens, UniProt Q9UM73); experiment: Block of ALK degradation by proteosome inhibitors MG132 and MLN4924 in SR cells; format: cell-based
T6 construct: NPM (nucleophosmin, NPM1, P06748) fusion partner; host or cells: SR (ALCL) cells; the other entry of the earlier key: NPM1 (P06748, Nucleophosmin)
Text: To further validate the degradation effect act through proteosome mediated pathway, we also treated cells with two different proteosome inhibitors MG132 and MLN4924 to block protein degradation (FIG. 16).

[9] = IP, 2 mg/kg, read-out: serum half-life (converted)
[10] = IP, 2 mg/kg, read-out: time to maximal serum peak level (Tmax)
[11] = IV, single dose 2 mg/kg, read-out: serum clearance half-life (converted)
[12] = PO, 10 mg/kg, read-out: serum half-life (converted)
[13] = U118MG cells, 72 hours, n = 2, reagent CTG
[14] = MOLM-13, MOLM13 cells, n = 2, reagent CTG, read-out: Half Inhibitory Concentration (IC50) Mean

SMILES: COc1cc(N2CCC(N3CCN(C(=O)CCCCCCNc4cccc5c4C(=O)N(C4CCC(=O)NC4=O)C5=O)CC3)CC2)ccc1Nc1ncc(Cl)c(Nc2ccccc2P(C)(C)=O)n1 (stereo not drawn) [SIAIS164023, 4-((7-(4-(1-(4-((5-chloro-4-((2-(dimethylphosphoryl)phenyl)amino)pyrimidin-2-yl)amino)-3-methoxyphenyl)piperidin-4-yl)piperazin-1-yl)-7-oxoheptyl)amino)-2-(2,6-dioxopiperidin-3-yl)isoindoline-1,3-dione]
- GI50 (Ba/F3 (EML4-ALK/C1156Y)): 47.5 nM
- DC50 [1]: 1 to 10 nM
- GI50 (Ba/F3 (EML4-ALK/L1196M)): 75.8 nM
- bioavailability ([2]; IP, 2 mg/kg): 122%
- half-life [2, 9]: 1.62 h
- Tmax [2, 10]: ~2 h
- clearance ([2]; IV, single dose 2 mg/kg): ~88.2 mL/min/kg
- half-life [2, 11]: ~7.71 h
- bioavailability ([2]; PO, 10 mg/kg): 34.4%
- Tmax ([2]; PO, 10 mg/kg, read-out: Tmax): 3.33 h
- half-life [2, 12]: 2.13 h
- DC50 [3]: 0.5 to 10 nM
- GI50 (Ba/F3 (EML4-ALK/WT)): 33.6 nM
- IC50 [4]: 870 nM
- IC50 (SR (NPM-ALK) cells): 4.8 ± 2.7 nM
- IC50 [5]: 15.5 nM
- IC50 [6]: 379 nM

SMILES: COc1cc(N2CCC(NC(=O)CCCCCCC(=O)N[C@H](C(=O)N3C[C@H](O)C[C@H]3C(=O)NCc3ccc(-c4scnc4C)cc3)C(C)(C)C)CC2)ccc1Nc1ncc(Cl)c(Nc2ccccc2P(C)(C)=O)n1 [SIAIS164147, N1-(1-(4-((5-chloro-4-((2-(dimethylphosphoryl)phenyl)amino)pyrimidin-2-yl)amino)-3-methoxyphenyl)piperidin-4-yl)-N8-((S)-1-((2S,4R)-4-hydroxy-2-((4-(4-methylthiazol-5-yl)benzyl)carbamoyl)pyrrolidin-1-yl)-3,3-dimethyl-1-oxobutan-2-yl)octanediamide]
- DC50 [1]: 0.02 to 1 nM
- DC50 [3]: 1 to 10 nM
- IC50 [4]: 1280 nM
- IC50 (SR (NPM-ALK) cells): 2 ± 1.2 nM
- IC50 [6]: 321 nM

SMILES: COc1cc(N2CCC(N3CCN(C(=O)CCOCCNc4cccc5c4C(=O)N(C4CCC(=O)NC4=O)C5=O)CC3)CC2)ccc1Nc1ncc(Cl)c(Nc2ccccc2P(C)(C)=O)n1 (stereo not drawn) [SIAIS164007, 4-((2-(3-(4-(1-(4-((5-chloro-4-((2-(dimethylphosphoryl)phenyl)amino)pyrimidin-2-yl)amino)-3-methoxyphenyl)piperidin-4-yl)piperazin-1-yl)-3-oxopropoxy)ethyl)amino)-2-(2,6-dioxopiperidin-3-yl)isoindoline-1,3-dione]
- DC50 [1]: 10 to 50 nM
- DC50 [3]: 1 to 10 nM
- IC50 [4]: 1610 nM
- IC50 (SR (NPM-ALK) cells): 3.8 ± 1.9 nM
- IC50 [6]: 358 nM

SMILES: COc1cc(N2CCC(NC(=O)CCCCCCCCC(=O)N[C@H](C(=O)N3C[C@H](O)C[C@H]3C(=O)NCc3ccc(-c4scnc4C)cc3)C(C)(C)C)CC2)ccc1Nc1ncc(Cl)c(Nc2ccccc2P(C)(C)=O)n1 [SIAIS164149, N1-(1-(4-((5-chloro-4-((2-(dimethylphosphoryl)phenyl)amino)pyrimidin-2-yl)amino)-3-methoxyphenyl)piperidin-4-yl)-N10-((S)-1-((2S,4R)-4-hydroxy-2-((4-(4-methylthiazol-5-yl)benzyl)carbamoyl)pyrrolidin-1-yl)-3,3-dimethyl-1-oxobutan-2-yl)decanediamide]
- DC50 (nM)) in H3122 [1]: 0.02 to 20 nM
- DC50 [3]: 1 to 10 nM
- IC50 [4]: 988 nM
- IC50 (SR (NPM-ALK) cells): 2.3 ± 2 nM
- IC50 [6]: 187 nM

SMILES: COc1cc(N2CCC(N3CCN(C(=O)CCCCNc4cccc5c4C(=O)N(C4CCC(=O)NC4=O)C5=O)CC3)CC2)ccc1Nc1ncc(Cl)c(Nc2ccccc2P(C)(C)=O)n1 (stereo not drawn) [SIAIS164021, 4-((5-(4-(1-(4-((5-chloro-4-((2-(dimethylphosphoryl)phenyl)amino)pyrimidin-2-yl)amino)-3-methoxyphenyl)piperidin-4-yl)piperazin-1-yl)-5-oxopentyl)amino)-2-(2,6-dioxopiperidin-3-yl)isoindoline-1,3-dione]
- DC50 [1]: 1 to 10 nM
- DC50 [3]: 0.1 to 0.5 nM
- concentration at which ALK proteins were degraded ([3]; SR cells, western blot): 1 nM
- IC50 [4]: 2440 nM
- IC50 (SR (NPM-ALK) cells): 7.4 ± 5 nM
- IC50 [6]: 434 nM

SMILES: COc1cc(N2CCC(NC(=O)CCCNc3cccc4c3C(=O)N(C3CCC(=O)NC3=O)C4=O)CC2)ccc1Nc1ncc(Cl)c(Nc2ccccc2P(C)(C)=O)n1 (stereo not drawn) [SIAIS151118, N-(1-(4-((5-chloro-4-((2-(dimethylphosphoryl)phenyl)amino)pyrimidin-2-yl)amino)-3-methoxyphenyl)piperidin-4-yl)-4-((2-(2,6-dioxopiperidin-3-yl)-1,3-dioxoisoindolin-4-yl)amino)butanamide]
- IC50 [7, 13]: 4260 nM
- GI50 (Ba/F3 (EML4-ALK/C1156Y)): 129 nM
- DC50 [1]: 1 to 50 nM
- GI50 (Ba/F3 (EML4-ALK/L1196M)): 146 nM
- bioavailability ([2]; IP, 2 mg/kg): 225%
- half-life [2, 9]: 3.27 h
- Tmax [2, 10]: ~1.67 h
- clearance ([2]; IV, single dose 2 mg/kg): ~6.35 mL/min/kg
- half-life [2, 11]: ~4.73 h
- bioavailability ([2]; PO, 10 mg/kg): 36%
- Tmax ([2]; PO, 10 mg/kg, read-out: Tmax): 3.33 h
- half-life [2, 12]: 4.66 h
- IC50 [8]: 1920 nM
- IC50 (MOLM13 cells (FLT3-ITD); [14]): 101 nM
- IC50 (MOLM13 cells (FLT3-ITD); MOLM-13, MOLM13 cells, read-out: IC50): 101 nM
- DC50 [3]: 1 to 10 nM
- GI50 (Ba/F3 (EML4-ALK/WT)): 92 nM
- IC50 (SR (NPM-ALK) cells): 0.9 ± 0.2 nM
- IC50 [5]: 346 nM

SMILES: COc1cc(N2CCC(N3CCN(C(=O)CNc4cccc5c4CN(C4CCC(=O)NC4=O)C5=O)CC3)CC2)ccc1Nc1ncc(Cl)c(Nc2ccccc2P(C)(C)=O)n1 (stereo not drawn) [SIAIS219073, 3-(4-((2-(4-(1-(4-((5-chloro-4-((2-(dimethylphosphoryl)phenyl)amino)pyrimidin-2-yl)amino)-3-methoxyphenyl)piperidin-4-yl)piperazin-1-yl)-2-oxoethyl)amino)-1-oxoisoindolin-2-yl)piperidine-2,6-dione]
- IC50 [7, 13]: > 20000 nM
- IC50 [8]: > 20000 nM
- IC50 (MOLM13 cells (FLT3-ITD); [14]): 373 nM
- IC50 (SR (NPM-ALK) cells): 1.8 ± 1 nM

SMILES: COc1cc(N2CCC(NC(=O)CCCCCCCC(=O)N[C@H](C(=O)N3C[C@H](O)C[C@H]3C(=O)NCc3ccc(-c4scnc4C)cc3)C(C)(C)C)CC2)ccc1Nc1ncc(Cl)c(Nc2ccccc2P(C)(C)=O)n1 [SIAIS164148]
- DC50 [1]: 1 to 50 nM
- DC50 [3]: 1 to 10 nM
- IC50 [4]: 1340 nM
- IC50 (SR (NPM-ALK) cells): 1.5 ± 0.8 nM
- IC50 [6]: 153 nM

SMILES: CCc1cc2c(cc1N1CCC(N3CCOCC3)CC1)C(C)(C)c1[nH]c3cc(C#N)ccc3c1C2=O [Alectinib, reference compound]
- IC50 ([7]; 72 h): 1480 nM
- IC50 [8]: 800 nM
- IC50 (MOLM13 cells (FLT3-ITD); MOLM-13, read-out: Half Inhibitory Concentration (IC50) Mean): 255 nM

SMILES: COc1cc(N2CCC(N3CCN(C(=O)CNc4cccc5c4C(=O)N(C4CCC(=O)N(C)C4=O)C5=O)CC3)CC2)ccc1Nc1ncc(Cl)c(Nc2ccccc2P(C)(C)=O)n1 (stereo not drawn) [SIAIS1210003, 4-((2-(4-(1-(4-((5-chloro-4-((2-(dimethylphosphoryl)phenyl)amino)pyrimidin-2-yl)amino)-3-methoxyphenyl)piperidin-4-yl)piperazin-1-yl)-2-oxoethyl)amino)-2-(1-methyl-2,6-dioxopiperidin-3-yl)isoindoline-1,3-dione]
- reduction of ALK protein level and its block by MG132 and MLN4924 (ALK protein in SR cells): no such effect

SMILES: COc1cc(N2CCC(N3CCN(C(=O)CCCCCNc4cccc5c4C(=O)N(C4CCC(=O)NC4=O)C5=O)CC3)CC2)ccc1Nc1ncc(Cl)c(Nc2ccccc2P(C)(C)=O)n1 (stereo not drawn) [SIAIS164022, 4-((6-(4-(1-(4-((5-chloro-4-((2-(dimethylphosphoryl)phenyl)amino)pyrimidin-2-yl)amino)-3-methoxyphenyl)piperidin-4-yl)piperazin-1-yl)-6-oxohexyl)amino)-2-(2,6-dioxopiperidin-3-yl)isoindoline-1,3-dione]
- DC50 [1]: 1 to 10 nM
- DC50 [3]: 1 to 10 nM
- IC50 [4]: 696 nM
- IC50 (SR (NPM-ALK) cells): 3.3 ± 2.2 nM
- IC50 [6]: 233 nM
